Columns and labels:
[1] = compound: CCCCOc1c(C(=O)c2c(F)cc(C)cc2F)c[nH]c2nncc1-2
Luminespib/NVP-AUY922 = compound: CCNC(=O)c1noc(-c2cc(C(C)C)c(O)cc2O)c1-c1ccc(CN2CCOCC2)cc1 [Luminespib/NVP-AUY922]
THZ-P1-2 = compound: CN(C)C/C=C/C(=O)NC1=CC=C(C=C1)C(=O)NC2=CC=CC(=C2)NC3=NC=NC(=C3)C4=CNC5=CC=CC=C54 [THZ-P1-2]
BSJ-01-175 = compound: CN(C)C/C=C/C(=O)Nc1ccc(O[C@@H]2CCC[C@@H](Nc3ncc(Cl)c(-c4c[nH]c5ccccc45)n3)C2)cc1 [BSJ-01-175]
Saracatinib/AZD0530 = compound: CN1CCN(CCOc2cc(OC3CCOCC3)c3c(Nc4c(Cl)ccc5c4OCO5)ncnc3c2)CC1 [Saracatinib/AZD0530]
Ceritinib/LDK378 = compound: Cc1cc(Nc2ncc(Cl)c(Nc3ccccc3S(=O)(=O)C(C)C)n2)c(OC(C)C)cc1C1CCNCC1 [Ceritinib/LDK378]
YKL-5-124 = compound: C=CC(=O)Nc1ccc(C(=O)Nc2[nH]nc3c2CN(C(=O)N[C@H](CN(C)C)c2ccccc2)C3(C)C)cc1 [YKL-5-124]; assay: increase in dead-cell fraction, 72 h; higher = more death;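 also: breast cancer cell lines in 384-well plates, stained with Hoechst plus LIVE/DEAD far red dye and imaged, cells above an LDR intensity threshold counted dead, Hoechst-negative corpses included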
BSJ-03-123 = compound: CC(=O)c1c(C)c2cnc(Nc3ccc(N4CCN(CCOCCOCCOCCNC(=O)COc5cccc6c5C(=O)N(C5CCC(=O)NC5=O)C6=O)CC4)cn3)nc2n(C2CCCC2)c1=O [BSJ-03-123]; assay: as above
[2] = compound: CC(=O)c1c(C)c2cnc(Nc3ccc(N4CCNCC4)cn3)nc2n(C2CCCC2)c1=O; assay: as above
[3] = compound: CCN1CCN(Cc2ccc(Nc3ncc(F)c(-c4cc(F)c5nc(C)n(C(C)C)c5c4)n3)nc2)CC1; assay: as above
Neratinib/HKI272 = compound: CCOc1cc2ncc(C#N)c(Nc3ccc(OCc4ccccn4)c(Cl)c3)c2cc1NC(=O)/C=C/CN(C)C [Neratinib/HKI272]; assay: as above
[4] = compound: CCc1cnn2c(NCc3ccc[n+]([O-])c3)cc(N3CCCC[C@H]3CCO)nc12; assay: as above
LEE011/Ribociclib = compound: CN(C)C(=O)c1cc2cnc(Nc3ccc(N4CCNCC4)cn3)nc2n1C1CCCC1 [LEE011/Ribociclib]; assay: as above
THZ531 = compound: CN(C)C/C=C/C(=O)Nc1ccc(C(=O)N2CCC[C@@H](Nc3ncc(Cl)c(-c4c[nH]c5ccccc45)n3)C2)cc1 [THZ531]; assay: as above
THZ1 = compound: CN(C)C/C=C/C(=O)Nc1ccc(C(=O)Nc2cccc(Nc3ncc(Cl)c(-c4c[nH]c5ccccc45)n3)c2)cc1 [THZ1]; assay: as above
Flavopiridol = compound: CN1CC[C@H](c2c(O)cc(O)c3c(=O)cc(-c4ccccc4Cl)oc23)[C@H](O)C1 [Flavopiridol]; assay: as above
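For GR50, 72 h in this document: breast cancer and non-malignant breast epithelial cell lines, Deep Dye Drop or Dye Drop imaging, nine half-log doses, GR normalized to time-zero plates and DMSO-only controls.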

With SUM149 the “GR50, 72 h” value [1] was 0.0163 µM, the “GR50, 72 h” value (Luminespib/NVP-AUY922) was 0.00516 µM and the “GR50, 72 h” value (THZ-P1-2) was 6.14 µM. The “GR50, 72 h” value (BSJ-01-175) was 0.0356 µM, the “GR50, 72 h” value (Saracatinib/AZD0530) was 2.49 µM and the “GR50, 72 h” value (Ceritinib/LDK378) was 1.7 µM. For the same cell line, the “increase in dead-cell fraction” value (YKL-5-124; 0.001 µM) was 0.0758, the “increase in dead-cell fraction” value (YKL-5-124; 0.003162 µM) was 0.1 and the “increase in dead-cell fraction” value (YKL-5-124; 0.01 µM) was 0.103. The “increase in dead-cell fraction” value (YKL-5-124; 0.03162 µM) was 0.0843, the “increase in dead-cell fraction” value (YKL-5-124; 0.1 µM) was 0.124 and the “increase in dead-cell fraction” value (YKL-5-124; 0.3162 µM) was 0.124. For the same cell line, the “increase in dead-cell fraction” value (YKL-5-124; 1 µM) was 0.0859, the “increase in dead-cell fraction” value (YKL-5-124; 3.162 µM) was 0.172 and the “increase in dead-cell fraction” value (YKL-5-124; 10 µM) was 0.199. For the same cell line, the “increase in dead-cell fraction” value (BSJ-03-123; 0.001 µM) was -0.0068, the “increase in dead-cell fraction” value (BSJ-03-123; 0.003162 µM) was -0.0064 and the “increase in dead-cell fraction” value (BSJ-03-123; 0.01 µM) was -0.0053. For the same cell line, the “increase in dead-cell fraction” value (BSJ-03-123; 0.03162 µM) was 0.0051, the “increase in dead-cell fraction” value (BSJ-03-123; 0.1 µM) was 0.0006 and the “increase in dead-cell fraction” value (BSJ-03-123; 0.3162 µM) was -0.0032. For the same cell line, the “increase in dead-cell fraction” value (BSJ-03-123; 1 µM) was 0.0245, the “increase in dead-cell fraction” value (BSJ-03-123; 3.162 µM) was 0.0364 and the “increase in dead-cell fraction” value (BSJ-03-123; 10 µM) was 0.217. The “increase in dead-cell fraction” value ([2]; 0.0003162 µM) was 0.0026, the “increase in dead-cell fraction” value ([2]; 0.001 µM) was 0.0019 and the “increase in dead-cell fraction” value ([2]; 0.003162 µM) was 0.0012. The “increase in dead-cell fraction” value ([2]; 0.01 µM) was -0.0029, the “increase in dead-cell fraction” value ([2]; 0.03162 µM) was -0.003 and the “increase in dead-cell fraction” value ([2]; 0.1 µM) was 0.0002. For the same cell line, the “increase in dead-cell fraction” value ([2]; 0.3162 µM) was -0.0014, the “increase in dead-cell fraction” value ([2]; 1 µM) was -0.0001 and the “increase in dead-cell fraction” value ([2]; 3.162 µM) was 0.0028. The “increase in dead-cell fraction” value ([3]; 0.001 µM) was -0.0036, the “increase in dead-cell fraction” value ([3]; 0.003162 µM) was -0.0058 and the “increase in dead-cell fraction” value ([3]; 0.01 µM) was -0.0009. For the same cell line, the “increase in dead-cell fraction” value ([3]; 0.03162 µM) was -0.0068, the “increase in dead-cell fraction” value ([3]; 0.1 µM) was -0.0045 and the “increase in dead-cell fraction” value ([3]; 0.3162 µM) was -0.0069. For the same cell line, the “increase in dead-cell fraction” value ([3]; 1 µM) was -0.0076, the “increase in dead-cell fraction” value ([3]; 3.162 µM) was -0.0046 and the “increase in dead-cell fraction” value ([3]; 10 µM) was 0.0956. For the same cell line, the “increase in dead-cell fraction” value (Neratinib/HKI272; 0.0003162 µM) was -0.0005, the “increase in dead-cell fraction” value (Neratinib/HKI272; 0.001 µM) was -0.0026 and the “increase in dead-cell fraction” value (Neratinib/HKI272; 0.003162 µM) was -0.0047. The “increase in dead-cell fraction” value (Neratinib/HKI272; 0.01 µM) was -0.0034, the “increase in dead-cell fraction” value (Neratinib/HKI272; 0.03162 µM) was 0.001 and the “increase in dead-cell fraction” value (Neratinib/HKI272; 0.1 µM) was 0.0172. For the same cell line, the “increase in dead-cell fraction” value (Neratinib/HKI272; 0.3162 µM) was 0.0405, the “increase in dead-cell fraction” value (Neratinib/HKI272; 1 µM) was 0.0409 and the “increase in dead-cell fraction” value (Neratinib/HKI272; 3.162 µM) was 0.0594. The “increase in dead-cell fraction” value ([4]; 0.0001 µM) was -0.0003, the “increase in dead-cell fraction” value ([4]; 0.0003162 µM) was -0.0062 and the “increase in dead-cell fraction” value ([4]; 0.001 µM) was 0.0017. For the same cell line, the “increase in dead-cell fraction” value ([4]; 0.003162 µM) was 0.0022, the “increase in dead-cell fraction” value ([4]; 0.01 µM) was 0.021 and the “increase in dead-cell fraction” value ([4]; 0.03162 µM) was 0.756. For the same cell line, the “increase in dead-cell fraction” value ([4]; 0.1 µM) was 0.832, the “increase in dead-cell fraction” value ([4]; 0.3162 µM) was 0.831 and the “increase in dead-cell fraction” value ([4]; 1 µM) was 0.814. The “increase in dead-cell fraction” value (LEE011/Ribociclib; 0.001 µM) was -0.0066, the “increase in dead-cell fraction” value (LEE011/Ribociclib; 0.003162 µM) was -0.0033 and the “increase in dead-cell fraction” value (LEE011/Ribociclib; 0.01 µM) was 0.001. For the same cell line, the “increase in dead-cell fraction” value (LEE011/Ribociclib; 0.03162 µM) was -0.0061, the “increase in dead-cell fraction” value (LEE011/Ribociclib; 0.1 µM) was -0.0037 and the “increase in dead-cell fraction” value (LEE011/Ribociclib; 0.3162 µM) was 0.0068. The “increase in dead-cell fraction” value (LEE011/Ribociclib; 1 µM) was 0.0043, the “increase in dead-cell fraction” value (LEE011/Ribociclib; 3.162 µM) was 0.0014 and the “increase in dead-cell fraction” value (LEE011/Ribociclib; 10 µM) was 0.0135. For the same cell line, the “increase in dead-cell fraction” value (THZ531; 0.0001 µM) was 0.0045, the “increase in dead-cell fraction” value (THZ531; 0.0003162 µM) was -0.0031 and the “increase in dead-cell fraction” value (THZ531; 0.001 µM) was 0. For the same cell line, the “increase in dead-cell fraction” value (THZ531; 0.003162 µM) was -0.0086, the “increase in dead-cell fraction” value (THZ531; 0.01 µM) was -0.0054 and the “increase in dead-cell fraction” value (THZ531; 0.03162 µM) was 0.0002. The “increase in dead-cell fraction” value (THZ531; 0.1 µM) was 0.0001, the “increase in dead-cell fraction” value (THZ531; 0.3162 µM) was 0.0691 and the “increase in dead-cell fraction” value (THZ531; 1 µM) was 0.58. For the same cell line, the “increase in dead-cell fraction” value (THZ1; 0.0001 µM) was -0.0005, the “increase in dead-cell fraction” value (THZ1; 0.0003162 µM) was -0.0052 and the “increase in dead-cell fraction” value (THZ1; 0.001 µM) was -0.0029. For the same cell line, the “increase in dead-cell fraction” value (THZ1; 0.003162 µM) was 0.0113, the “increase in dead-cell fraction” value (THZ1; 0.01 µM) was -0.0015 and the “increase in dead-cell fraction” value (THZ1; 0.03162 µM) was 0.0274. The “increase in dead-cell fraction” value (THZ1; 0.1 µM) was 0.083, the “increase in dead-cell fraction” value (THZ1; 0.3162 µM) was 0.445 and the “increase in dead-cell fraction” value (THZ1; 1 µM) was 0.589. The “increase in dead-cell fraction” value (Flavopiridol; 0.0001 µM) was 0.0065, the “increase in dead-cell fraction” value (Flavopiridol; 0.0003162 µM) was -0.0003 and the “increase in dead-cell fraction” value (Flavopiridol; 0.001 µM) was 0.0038. The “increase in dead-cell fraction” value (Flavopiridol; 0.003162 µM) was -0.0072, the “increase in dead-cell fraction” value (Flavopiridol; 0.01 µM) was -0.0008 and the “increase in dead-cell fraction” value (Flavopiridol; 0.03162 µM) was 0.0051. For the same cell line, the “increase in dead-cell fraction” value (Flavopiridol; 0.1 µM) was 0.0079, the “increase in dead-cell fraction” value (Flavopiridol; 0.3162 µM) was 0.114 and the “increase in dead-cell fraction” value (Flavopiridol; 1 µM) was 0.787.

Reference: the supplement of paper PMC9663587
